Values quoted from earlier work as cited in US20160129117A1, “Novel Boronic Acid Compound Preparation” (NIPPON KAYAKU KABUSHIKI KAISHA, priority 2013, published 2016).
Like-named read-outs stand apart in the source and are kept apart here.

Key:
[1] = in vivo

In the case of `CC(C)C[C@H](NC(=O)[C@H](Cc1ccccc1)NC(=O)c1cnccn1)B(O)O` [bortezomib], the “total dose causing the peripheral nerve toxicity” value [1] is given as “about 30 mg/m^2”, the “incidence of grade 3 peripheral neuropathy” value (intravenous administration) is given as 16% and the “incidence of grade 3 peripheral neuropathy” value (subcutaneous administration) is given as 6%.
